Experimental data: patent US10695337B2, “Piperidin-4-yl azetidine derivatives as JAK1 inhibitors” (Incyte Corporation, priority 2010, dated 2020)

Molecular target: human JAK1 (a.a. 837-1142)
Test: In vitro JAK kinase assay (HTRF, phosphorylation of a biotinylated peptide), JAK1
Type: biochemical
Details: measured at 1 mM ATP; JAK2 IC50 / JAK1 IC50
Summary of the method: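 N-terminally His-tagged catalytic domains, baculovirus-expressed in insect cells and purified, were used as enzyme. Reactions ran 1 hr at room temperature and were stopped with a mix of 45 mM EDTA, 300 nM SA-APC and 6 nM Eu-Py20. The HTRF signal was read after 40 min of antibody binding.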

Compound | IC50 Ratio JAK2/JAK1
COc1ccsc1C(=O)N1CCC(N2CC(CC#N)(n3cc(-c4ncnc5[nH]ccc45)cn3)C2)CC1 [Example 81, {1-{1-[(3-methoxy-2-thienyl)carbonyl]piperidin-4-yl}-3-[4-(7H-pyrrolo[2,3-d]pyrimidin-4-yl)-1H-pyrazol-1-yl]azetidin-3-yl}acetonitrile] | 4.2
N#CCC1(n2cc(-c3ncnc4[nH]ccc34)cn2)CN(C2CCN(C(=O)c3ccc(C(F)(F)F)cc3F)CC2)C1 [Example 82, {1-{1-[2-fluoro-4-(trifluoromethyl)benzoyl]piperidin-4-yl}-3-[4-(7H-pyrrolo[2,3-d]pyrimidin-4-yl)-1H-pyrazol-1-yl]azetidin-3-yl} acetonitrile] | 5.3
N#CCC1(n2cc(-c3ncnc4[nH]ccc34)cn2)CN(C2CCN(C(=O)c3c(F)cc(C#N)cc3F)CC2)C1 [Example 83, 4-[(4-{3-(cyanomethyl)-3-[4-(7H-pyrrolo[2,3-d]pyrimidin-4-yl)-1H-pyrazol-1-yl]azetidin-1-yl}piperidin-1-yl)carbonyl]-3,5-difluorobenzonitrile] | 5.8
N#CCC1(n2cc(-c3ncnc4[nH]ccc34)cn2)CN(C2CCN(C(=O)c3ccc(O)c(Cl)c3)CC2)C1 [Example 84, {1-[1-(3-chloro-4-hydroxybenzoyl)piperidin-4-yl]-3-[4-(7H-pyrrolo[2,3-d]pyrimidin-4-yl)-1H-pyrazol-1-yl]azetidin-3-yl}acetonitrile] | 6.5
N#CCC1(n2cc(-c3ncnc4[nH]ccc34)cn2)CN(C2CCN(C(=O)c3cccc4ccccc34)CC2)C1 [Example 87, {1-[1-(1-naphthoyl)piperidin-4-yl]-3-[4-(7H-pyrrolo[2,3-d]pyrimidin-4-yl)-1H-pyrazol-1-yl]azetidin-3-yl}acetonitrile] | 0.3
N#CCC1(n2cc(-c3ncnc4[nH]ccc34)cn2)CN(C2CCN(C(=O)c3cnc4ccccc4c3)CC2)C1 [Example 88, {3-[4-(7H-pyrrolo[2,3-d]pyrimidin-4-yl)-1H-pyrazol-1-yl]-1-[1-(quinolin-3-ylcarbonyl)piperidin-4-yl]azetidin-3-yl}acetonitrile] | 0.9
N#CCC1(n2cc(-c3ncnc4[nH]ccc34)cn2)CN(C2CCN(C(=O)c3ccc4ncccc4c3)CC2)C1 [Example 89, {3-[4-(7H-pyrrolo[2,3-d]pyrimidin-4-yl)-1H-pyrazol-1-yl]-1-[1-(quinolin-6-ylcarbonyl)piperidin-4-yl]azetidin-3-yl}acetonitrile] | 2.6
N#CCC1(n2cc(-c3ncnc4[nH]ccc34)cn2)CN(C2CCN(C(=O)c3cc4ccccc4s3)CC2)C1 [Example 90, {1-[1-(1-benzothien-2-ylcarbonyl)piperidin-4-yl]-3-[4-(7H-pyrrolo[2,3-d]pyrimidin-4-yl)-1H-pyrazol-1-yl]azetidin-3-yl}acetonitrile] | 1.5
N#CCC1(n2cc(-c3ncnc4[nH]ccc34)cn2)CN(C2CCN(C(=O)c3sc4cc(F)ccc4c3Cl)CC2)C1 [Example 91, {1-{1-[(3-chloro-6-fluoro-1-benzothien-2-yl)carbonyl]piperidin-4-yl}-3-[4-(7H-pyrrolo[2,3-d]pyrimidin-4-yl)-1H-pyrazol-1-yl]azetidin-3-yl}acetonitrile] | 1.7
N#CCC1(n2cc(-c3ncnc4[nH]ccc34)cn2)CN(C2CCN(C(=O)c3sc4cccc(F)c4c3Cl)CC2)C1 [Example 92, {1-{1-[(3-chloro-4-fluoro-1-benzothien-2-yl)carbonyl]piperidin-4-yl}-3-[4-(7H-pyrrolo[2,3-d]pyrimidin-4-yl)-1H-pyrazol-1-yl]azetidin-3-yl}acetonitrile] | 2.8
N#CCC1(n2cc(-c3ncnc4[nH]ccc34)cn2)CN(C2CCN(C(=O)c3cc4c(C(F)(F)F)cccc4s3)CC2)C1 [Example 93, [3-[4-(7H-pyrrolo[2,3-d]pyrimidin-4-yl)-1H-pyrazol-1-yl]-1-(1-{[4-(trifluoromethyl)-1-benzothien-2-yl]carbonyl}piperidin-4-yl)azetidin-3-yl]acetonitrile] | 1.5
N#CCC1(n2cc(-c3ncnc4[nH]ccc34)cn2)CN(C2CCN(C(=O)c3cc4ccc(C(F)(F)F)cc4s3)CC2)C1 [Example 94, [3-[4-(7H-pyrrolo[2,3-d]pyrimidin-4-yl)-1H-pyrazol-1-yl]-1-(1-{[6-(trifluoromethyl)-1-benzothien-2-yl]carbonyl}piperidin-4-yl)azetidin-3-yl]acetonitrile] | 1.0
N#CCC1(n2cc(-c3ncnc4[nH]ccc34)cn2)CN(C2CCN(C(=O)c3cc4cccc(C(F)(F)F)c4s3)CC2)C1 [Example 95, [3-[4-(7H-pyrrolo[2,3-d]pyrimidin-4-yl)-1H-pyrazol-1-yl]-1-(1-{[7-(trifluoromethyl)-1-benzothien-2-yl]carbonyl}piperidin-4-yl)azetidin-3-yl]acetonitrile] | 2.7
N#CCC1(n2cc(-c3ncnc4[nH]ccc34)cn2)CN(C2CCN(C(=O)c3csc4ccccc34)CC2)C1 [Example 96, {1-[1-(1-benzothien-3-ylcarbonyl)piperidin-4-yl]-3-[4-(7H-pyrrolo[2,3-d]pyrimidin-4-yl)-1H-pyrazol-1-yl]azetidin-3-yl} acetonitrile] | 0.5
N#CCC1(n2cc(-c3ncnc4[nH]ccc34)cn2)CN(C2CCN(C(=O)C3CCc4ccccc4C3)CC2)C1 (stereo not drawn) [Example 97, {3-[4-(7H-pyrrolo[2,3-d]pyrimidin-4-yl)-1H-pyrazol-1-yl]-1-[1-(1,2,3,4-tetrahydronaphthalen-2-ylcarbonyl)piperidin-4-yl]azetidin-3-yl}acetonitrile] | 2.2
N#CCC1(n2cc(-c3ncnc4[nH]ccc34)cn2)CN(C2CCN(C(=O)C3CCC(C(F)(F)F)CC3)CC2)C1 (stereo not drawn) [Example 98, [3-[4-(7H-pyrrolo[2,3-d]pyrimidin-4-yl)-1H-pyrazol-1-yl]-1-(1-{[4-(trifluoromethyl)cyclohexyl]carbonyl}piperidin-4-yl)azetidin-3-yl] acetonitrile] | 3.7
N#CCC1(n2cc(-c3ncnc4[nH]ccc34)cn2)CN(C2CCN(C(=O)C3CCC(F)(F)CC3)CC2)C1 [Example 100, {1-{1-[(4,4-difluorocyclohexyl)carbonyl]piperidin-4-yl}-3-[4-(7H-pyrrolo[2,3-d]pyrimidin-4-yl)-1H-pyrazol-1-yl]azetidin-3-yl}acetonitrile] | 6.6
N#CCC1(n2cc(-c3ncnc4[nH]ccc34)cn2)CN(C2CCN(C(=O)C3CCCC3)CC2)C1 [Example 101, {1-[1-(cyclopentylcarbonyl)piperidin-4-yl]-3-[4-(7H-pyrrolo[2,3-d]pyrimidin-4-yl)-1H-pyrazol-1-yl]azetidin-3-yl}acetonitrile] | 8.3
N#CCC1(n2cc(-c3ncnc4[nH]ccc34)cn2)CN(C2CCN(C(=O)C3CCC(c4ccc(Cl)cc4)CC3)CC2)C1 (stereo not drawn) [Example 105, {1-(1-{[4-(4-chlorophenyl)cyclohexyl]carbonyl}piperidin-4-yl)-3-[4-(7H-pyrrolo[2,3-d]pyrimidin-4-yl)-1H-pyrazol-1-yl]azetidin-3-yl}acetonitrile] | 7.2
N#CCC1(n2cc(-c3ncnc4[nH]ccc34)cn2)CN(C2CCN(C(=O)Cc3ccccc3)CC2)C1 [Example 109, {1-[1-(phenylacetyl)piperidin-4-yl]-3-[4-(7H-pyrrolo[2,3-d]pyrimidin-4-yl)-1H-pyrazol-1-yl]azetidin-3-yl} acetonitrile] | 1.1
N#CCC1(n2cc(-c3ncnc4[nH]ccc34)cn2)CN(C2CCN(C(=O)C3(c4ccccc4)CC3)CC2)C1 [Example 110, {1-{1-[(1-phenylcyclopropyl)carbonyl]piperidin-4-yl}-3-[4-(7H-pyrrolo[2,3-d]pyrimidin-4-yl)-1H-pyrazol-1-yl]azetidin-3-yl}acetonitrile] | 1.6
N#CCC1(n2cc(-c3ncnc4[nH]ccc34)cn2)CN(C2CCN(C(=O)C3(c4ccc(Cl)cc4)CC3)CC2)C1 [Example 111, {1-(1-{[1-(4-chlorophenyl)cyclopropyl]carbonyl}piperidin-4-yl)-3-[4-(7H-pyrrolo [2,3-d]pyrimidin-4-yl)-1H-pyrazol-1-yl]azetidin-3-yl}acetonitrile] | 2.6
N#CCC1(n2cc(-c3ncnc4[nH]ccc34)cn2)CN(C2CCN(C(=O)Cc3c(Cl)cccc3Cl)CC2)C1 [Example 112, {1-{1-[(2,6-dichlorophenyl)acetyl]piperidin-4-yl}-3-[4-(7H-pyrrolo[2,3-d]pyrimidin-4-yl)-1H-pyrazol-1-yl]azetidin-3-yl} acetonitrile] | 8.2
Cc1cc(C)c(CC(=O)N2CCC(N3CC(CC#N)(n4cc(-c5ncnc6[nH]ccc56)cn4)C3)CC2)c(C)c1 [Example 113, {1-[1-(mesitylacetyl)piperidin-4-yl]-3-[4-(7H-pyrrolo[2,3-d]pyrimidin-4-yl)-1H-pyrazol-1-yl]azetidin-3-yl} acetonitrile] | 4.2
N#CCC1(n2cc(-c3ncnc4[nH]ccc34)cn2)CN(C2CCN(C(=O)c3ccc(-c4ccccc4)cc3)CC2)C1 [Example 114, {1-[1-(biphenyl-4-ylcarbonyl)piperidin-4-yl]-3-[4-(7H-pyrrolo[2,3-d]pyrimidin-4-yl)-1H-pyrazol-1-yl]azetidin-3-yl}acetonitrile] | 1.5
N#CCC1(n2cc(-c3ncnc4[nH]ccc34)cn2)CN(C2CCN(C(=O)c3ccc(-c4ccncc4)c(F)c3)CC2)C1 [Example 117, {1-[1-(3-fluoro-4-pyridin-4-ylbenzoyl)piperidin-4-yl]-3-[4-(7H-pyrrolo[2,3-d]pyrimidin-4-yl)-1H-pyrazol-1-yl]azetidin-3-yl} acetonitrile] | 10.0
N#CCC1(n2cc(-c3ncnc4[nH]ccc34)cn2)CN(C2CCN(C(=O)c3ccc(-c4ccc(C#N)c(F)c4)c(F)c3)CC2)C1 [Example 119, 4′-[(4-{3-(cyanomethyl)-3-[4-(7H-pyrrolo[2,3-d]pyrimidin-4-yl)-1H-pyrazol-1-yl]azetidin-1-yl}piperidin-1-yl)carbonyl]-2′,3-difluorobiphenyl-4-carbonitrile] | 14.0
